Experimental data reported in patent publication US12258327B2, “5-membered heteroaryl-containing aminopyridine compounds as EGFR inhibitors” (YUHAN CORPORATION, priority 2021, dated 2025).
Like-named read-outs stand apart in the source and are kept apart here.

What was measured:
EGFR del19/C797S = EGFR del19/C797S (Homo sapiens, UniProt P00533, C797S/DEL746-750); test: Biochemical EGFR kinase assay (Lance Ultra TR-FRET), double mutant del19/C797S
Outline: (§1)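 In this biochemical assay, phosphorylation after a one-hour room-temperature reaction was detected with europium-labelled anti-phosphopeptide antibody at 2 nM final concentration.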

EGFR wildtype (WT) = EGFR wildtype (WT) (Homo sapiens, UniProt P00533); test: Biochemical EGFR kinase assay (Lance Ultra TR-FRET), wildtype
Chain of EGFR wildtype (WT) (P00533 25-1210): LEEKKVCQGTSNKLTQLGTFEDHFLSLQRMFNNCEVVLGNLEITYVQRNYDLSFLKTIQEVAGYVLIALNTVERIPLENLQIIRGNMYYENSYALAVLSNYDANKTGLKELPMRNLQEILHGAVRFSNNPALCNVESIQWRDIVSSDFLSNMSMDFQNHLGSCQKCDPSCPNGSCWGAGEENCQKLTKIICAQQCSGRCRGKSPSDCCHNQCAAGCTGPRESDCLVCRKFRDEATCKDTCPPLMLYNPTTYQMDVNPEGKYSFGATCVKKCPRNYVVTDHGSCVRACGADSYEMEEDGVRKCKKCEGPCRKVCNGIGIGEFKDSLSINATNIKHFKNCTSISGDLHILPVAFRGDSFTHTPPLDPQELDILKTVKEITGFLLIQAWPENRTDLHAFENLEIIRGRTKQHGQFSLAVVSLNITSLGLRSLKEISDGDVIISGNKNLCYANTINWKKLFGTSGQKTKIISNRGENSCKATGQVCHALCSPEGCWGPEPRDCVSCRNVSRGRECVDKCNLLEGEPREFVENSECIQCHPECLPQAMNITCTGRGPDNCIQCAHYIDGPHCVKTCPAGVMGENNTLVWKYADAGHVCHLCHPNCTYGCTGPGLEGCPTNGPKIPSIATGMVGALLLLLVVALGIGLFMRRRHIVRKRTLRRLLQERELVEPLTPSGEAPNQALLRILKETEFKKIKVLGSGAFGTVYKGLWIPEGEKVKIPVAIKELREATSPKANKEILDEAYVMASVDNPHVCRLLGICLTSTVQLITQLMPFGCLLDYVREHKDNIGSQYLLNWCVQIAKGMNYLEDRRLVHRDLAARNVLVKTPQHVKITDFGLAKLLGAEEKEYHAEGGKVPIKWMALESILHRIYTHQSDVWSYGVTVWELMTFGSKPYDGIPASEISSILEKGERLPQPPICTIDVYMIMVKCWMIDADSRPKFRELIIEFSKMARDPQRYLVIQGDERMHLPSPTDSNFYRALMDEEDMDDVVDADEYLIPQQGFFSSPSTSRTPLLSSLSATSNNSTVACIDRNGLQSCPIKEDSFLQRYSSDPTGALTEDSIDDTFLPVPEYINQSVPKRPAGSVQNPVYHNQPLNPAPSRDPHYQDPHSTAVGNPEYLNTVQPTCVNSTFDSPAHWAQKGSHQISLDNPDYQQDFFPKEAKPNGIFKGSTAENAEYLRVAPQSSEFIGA
Outline: as §1

EGFR L858R/T790M/C797S = EGFR L858R/T790M/C797S (Homo sapiens, UniProt P00533, C797S/L858R/T790M); test: Biochemical EGFR kinase assay (Lance Ultra TR-FRET), triple mutant L858R/T790M/C797S
Chain of EGFR L858R/T790M/C797S (P00533 25-1210 T790M/C797S/L858R): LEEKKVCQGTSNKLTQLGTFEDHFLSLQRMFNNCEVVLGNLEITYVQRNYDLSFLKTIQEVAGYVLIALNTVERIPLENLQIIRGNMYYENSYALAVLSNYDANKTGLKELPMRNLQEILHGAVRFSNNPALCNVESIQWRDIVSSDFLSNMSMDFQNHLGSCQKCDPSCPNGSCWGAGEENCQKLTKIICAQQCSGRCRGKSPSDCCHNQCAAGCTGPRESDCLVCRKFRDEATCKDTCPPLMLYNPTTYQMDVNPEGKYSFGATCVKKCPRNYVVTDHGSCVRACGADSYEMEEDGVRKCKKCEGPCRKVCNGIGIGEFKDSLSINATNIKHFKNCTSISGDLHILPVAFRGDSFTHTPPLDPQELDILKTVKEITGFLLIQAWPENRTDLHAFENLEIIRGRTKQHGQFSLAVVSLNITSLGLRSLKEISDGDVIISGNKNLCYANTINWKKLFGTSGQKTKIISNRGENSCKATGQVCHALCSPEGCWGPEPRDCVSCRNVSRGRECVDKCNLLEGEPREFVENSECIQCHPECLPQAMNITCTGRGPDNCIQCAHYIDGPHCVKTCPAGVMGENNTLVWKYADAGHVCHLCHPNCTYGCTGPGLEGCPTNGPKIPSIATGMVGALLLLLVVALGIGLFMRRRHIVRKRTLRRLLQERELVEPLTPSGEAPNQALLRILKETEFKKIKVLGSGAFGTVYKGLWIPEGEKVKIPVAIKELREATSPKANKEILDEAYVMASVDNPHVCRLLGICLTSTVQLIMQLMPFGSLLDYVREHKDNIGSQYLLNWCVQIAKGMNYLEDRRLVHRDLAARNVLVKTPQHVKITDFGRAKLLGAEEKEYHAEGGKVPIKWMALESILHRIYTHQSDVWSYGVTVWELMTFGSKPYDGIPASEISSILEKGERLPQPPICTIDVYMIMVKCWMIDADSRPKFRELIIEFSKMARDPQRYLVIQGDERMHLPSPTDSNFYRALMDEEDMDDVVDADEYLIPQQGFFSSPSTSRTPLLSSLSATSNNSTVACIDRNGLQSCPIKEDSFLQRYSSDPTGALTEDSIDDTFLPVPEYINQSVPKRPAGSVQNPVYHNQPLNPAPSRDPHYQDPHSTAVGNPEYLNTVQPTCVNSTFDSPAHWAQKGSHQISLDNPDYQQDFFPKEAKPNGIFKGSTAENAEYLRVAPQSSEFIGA
Outline: as §1

EGFR L858R/C797S = EGFR L858R/C797S (Homo sapiens, UniProt P00533, C797S/L858R); test: Biochemical EGFR kinase assay (Lance Ultra TR-FRET), double mutant L858R/C797S
Chain of EGFR L858R/C797S (P00533 25-1210 C797S/L858R): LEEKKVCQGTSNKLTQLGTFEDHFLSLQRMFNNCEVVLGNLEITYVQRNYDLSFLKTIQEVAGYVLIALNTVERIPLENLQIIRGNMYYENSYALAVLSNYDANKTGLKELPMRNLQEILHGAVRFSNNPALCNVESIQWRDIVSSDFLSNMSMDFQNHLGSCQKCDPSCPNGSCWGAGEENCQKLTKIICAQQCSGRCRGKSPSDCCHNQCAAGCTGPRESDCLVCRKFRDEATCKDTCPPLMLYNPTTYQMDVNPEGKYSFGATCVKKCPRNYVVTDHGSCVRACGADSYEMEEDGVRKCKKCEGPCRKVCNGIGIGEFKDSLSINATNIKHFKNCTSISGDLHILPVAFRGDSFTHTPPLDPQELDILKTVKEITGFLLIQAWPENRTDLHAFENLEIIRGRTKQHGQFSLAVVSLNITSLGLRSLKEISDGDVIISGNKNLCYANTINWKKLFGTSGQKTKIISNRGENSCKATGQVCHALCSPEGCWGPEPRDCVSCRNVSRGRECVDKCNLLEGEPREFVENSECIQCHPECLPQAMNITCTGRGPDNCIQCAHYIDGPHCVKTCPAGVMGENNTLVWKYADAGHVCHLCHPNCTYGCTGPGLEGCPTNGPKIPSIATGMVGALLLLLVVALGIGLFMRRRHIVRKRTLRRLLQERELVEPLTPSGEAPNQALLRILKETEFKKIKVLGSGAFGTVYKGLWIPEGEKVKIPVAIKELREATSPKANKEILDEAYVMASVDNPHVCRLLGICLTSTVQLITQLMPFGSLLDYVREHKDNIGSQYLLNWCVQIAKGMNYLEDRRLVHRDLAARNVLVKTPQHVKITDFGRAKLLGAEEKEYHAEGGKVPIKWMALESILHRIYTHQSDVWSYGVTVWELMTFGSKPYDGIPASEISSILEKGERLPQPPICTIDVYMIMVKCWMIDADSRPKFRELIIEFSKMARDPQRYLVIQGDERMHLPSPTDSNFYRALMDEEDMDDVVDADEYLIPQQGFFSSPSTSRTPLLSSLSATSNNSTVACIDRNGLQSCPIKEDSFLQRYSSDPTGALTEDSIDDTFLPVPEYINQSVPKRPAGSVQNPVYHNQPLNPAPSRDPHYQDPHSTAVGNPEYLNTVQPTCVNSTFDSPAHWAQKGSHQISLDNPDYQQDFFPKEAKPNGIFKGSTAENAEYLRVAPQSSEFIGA
Outline: as §1

EGFR del19/T790M/C797S = EGFR del19/T790M/C797S (Homo sapiens, UniProt P00533, C797S/DEL746-750/T790M); test: Biochemical EGFR kinase assay (Lance Ultra TR-FRET), triple mutant del19/T790M/C797S
Outline: as §1

[1] = IC50 del19/C797S (nM) 100 μM ATP, 100 μM ATP
[2] = Km ATP, read-out: IC50 del19/C797S (nM) Km ATP
[3] = IC50 WT (nM) 100 μM ATP, 100 μM ATP
[4] = Km ATP, read-out: IC50 WT (nM) Km ATP
[5] = IC50 L858R/T790M/C797S (nM) 100 μM ATP, 100 μM ATP
[6] = Km ATP, read-out: IC50 L858R/T790M/C797S (nM) Km ATP
[7] = IC50 L858R/C797S (nM) 100 μM ATP, 100 μM ATP
[8] = Km ATP, read-out: IC50 L858R/C797S (nM) Km ATP
[9] = IC50 del19/T790M/C797S (nM) 100 μM ATP, 100 μM ATP
[10] = Km ATP, read-out: IC50 del19/T790M/C797S (nM) Km ATP

Chain of EGFR del19/C797S (P00533 with tags, fused parts or gaps DEL746-750/C797S): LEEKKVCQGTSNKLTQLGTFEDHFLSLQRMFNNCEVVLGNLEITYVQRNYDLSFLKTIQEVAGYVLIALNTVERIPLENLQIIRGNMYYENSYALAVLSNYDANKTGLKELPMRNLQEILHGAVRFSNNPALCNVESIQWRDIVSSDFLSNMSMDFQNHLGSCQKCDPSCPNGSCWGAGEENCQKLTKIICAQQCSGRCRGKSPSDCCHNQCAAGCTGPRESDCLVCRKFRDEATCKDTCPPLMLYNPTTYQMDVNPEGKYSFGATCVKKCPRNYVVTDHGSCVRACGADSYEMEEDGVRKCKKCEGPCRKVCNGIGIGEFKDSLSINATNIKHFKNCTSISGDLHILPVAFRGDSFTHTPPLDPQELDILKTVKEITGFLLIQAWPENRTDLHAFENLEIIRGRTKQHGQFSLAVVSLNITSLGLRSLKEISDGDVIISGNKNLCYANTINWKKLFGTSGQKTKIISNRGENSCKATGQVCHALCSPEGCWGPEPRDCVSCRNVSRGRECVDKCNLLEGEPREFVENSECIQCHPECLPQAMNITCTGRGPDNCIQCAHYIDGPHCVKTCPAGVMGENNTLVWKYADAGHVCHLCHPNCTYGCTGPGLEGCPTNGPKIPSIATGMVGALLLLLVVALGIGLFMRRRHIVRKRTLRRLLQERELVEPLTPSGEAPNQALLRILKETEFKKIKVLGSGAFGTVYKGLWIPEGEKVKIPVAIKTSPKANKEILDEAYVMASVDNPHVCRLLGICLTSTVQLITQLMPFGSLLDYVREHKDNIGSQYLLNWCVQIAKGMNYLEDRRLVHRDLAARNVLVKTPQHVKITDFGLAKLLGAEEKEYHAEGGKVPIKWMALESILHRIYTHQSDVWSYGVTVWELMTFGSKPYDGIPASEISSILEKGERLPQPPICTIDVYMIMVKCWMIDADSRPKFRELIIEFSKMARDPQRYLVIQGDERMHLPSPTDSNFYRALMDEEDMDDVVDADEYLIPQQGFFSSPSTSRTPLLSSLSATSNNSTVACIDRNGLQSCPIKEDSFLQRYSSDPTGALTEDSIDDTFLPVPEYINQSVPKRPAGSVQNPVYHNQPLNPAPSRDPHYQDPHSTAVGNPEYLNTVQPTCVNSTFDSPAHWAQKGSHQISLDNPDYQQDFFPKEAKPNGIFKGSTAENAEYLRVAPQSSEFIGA

| Compound | IC50 (EGFR del19/C797S; [1]) [nM] | IC50 (EGFR del19/C797S; [2]) [nM] | IC50 (EGFR wildtype (WT); [3]) [nM] | IC50 (EGFR wildtype (WT); [4]) [nM] | IC50 (EGFR L858R/T790M/C797S; [5]) [nM] | IC50 (EGFR L858R/T790M/C797S; [6]) [nM] | IC50 (EGFR L858R/C797S; [7]) [nM] | IC50 (EGFR L858R/C797S; [8]) [nM] | IC50 (EGFR del19/T790M/C797S; [9]) [nM] | IC50 (EGFR del19/T790M/C797S; [10]) [nM] |
| --- | --- | --- | --- | --- | --- | --- | --- | --- | --- | --- |
| O=S(=O)(C1CC1)n1cc(-c2nccc(Nc3cc(N[C@H]4CC[C@@H](NCC(F)F)CC4)c(-c4csc(C(F)(F)F)n4)cn3)n2)cn1 [Example 53, N^2-(2-(1-(Cyclopropylsulfonyl)-1H-pyrazol-4-yl)pyrimidin-4-yl)-N^4-((1s,4s)-4-((2,2-difluoroethyl)amino)cyclohexyl)-5-(2-(trifluoromethyl)thiazol-4-yl)pyridine-2,4-diamine] | 14.2 | 7.7 | > 10000 | 105 | 11.3 | 2.9 | 264 | 15 | 9.4 | 8.5 |
| CN[C@H]1CC[C@@H](Nc2cc(Nc3ccnc(-c4cnn(S(=O)(=O)C5CC5)c4)n3)ncc2-c2csc(C(C)(C)O)n2)CC1 [Example 56, 2-(4-(6-((2-(1-(Cyclopropylsulfonyl)-1H-pyrazol-4-yl)pyrimidin-4-yl)amino)-4-(((1s,4s)-4-(methylamino)cyclohexyl)amino)pyridin-3-yl)thiazol-2-yl)propan-2-ol] | 13.2 | – | > 10000 | – | 0.8 | – | 7.1 | – | 0.6 | – |
| CC(C)(O)[C@H]1CC[C@@H](Nc2cc(Nc3ccnc(-c4cnn(S(=O)(=O)C5CC5)c4)n3)ncc2-c2cc3n(n2)CCCC3)CC1 [Example 61, 2-((1s,4s)-4-((2-((2-(1-(Cyclopropylsulfonyl)-1H-pyrazol-4-yl)pyrimidin-4-yl)amino)-5-(4,5,6,7-tetrahydropyrazolo[1,5-a]pyridin-2-yl)pyridin-4-yl)amino)cyclohexyl)propan-2-ol] | 6.2 | 1.9 | 2900 | 7.9 | 2.4 | 0.8 | 8.8 | 2.9 | 4.3 | 2 |

Molecules with a lower IC50 (EGFR del19/C797S; [1]), results first:

| IC50 (EGFR del19/C797S; [1]) [nM] | IC50 (EGFR del19/C797S; [2]) [nM] | IC50 (EGFR wildtype (WT); [3]) [nM] | IC50 (EGFR wildtype (WT); [4]) [nM] | IC50 (EGFR L858R/T790M/C797S; [5]) [nM] | IC50 (EGFR L858R/T790M/C797S; [6]) [nM] | IC50 (EGFR L858R/C797S; [7]) [nM] | IC50 (EGFR L858R/C797S; [8]) [nM] | IC50 (EGFR del19/T790M/C797S; [9]) [nM] | IC50 (EGFR del19/T790M/C797S; [10]) [nM] | Compound |
| --- | --- | --- | --- | --- | --- | --- | --- | --- | --- | --- |
| 1.9 | 1 | 368 | – | 0.6 | 0.3 | – | 0.6 | 0.8 | 0.7 | C[C@]1(O)CC[C@@H](Nc2cc(Nc3ccnc(-c4cnn(S(=O)(=O)C5CC5)c4)n3)ncc2-c2cc3n(n2)CCCC3)CC1 [Example 59, (1s,4s)-4-((2-((2-(1-(Cyclopropylsulfonyl)-1H-pyrazol-4-yl)pyrimidin-4-yl)amino)-5-(4,5,6,7-tetrahydropyrazolo[1,5-a]pyridin-2-yl)pyridin-4-yl)amino)-1-methylcyclohexan-1-ol] |
| 2.5 | 1.1 | 326 | 2.2 | – | 0.5 | 2.4 | 1.1 | 4.3 | 1.1 | O=S(=O)(C1CC1)n1cc(-c2nccc(Nc3cc(N[C@H]4CC[C@@H](CO)CC4)c(-c4cc5n(n4)CCCC5)cn3)n2)cn1 [Example 60, ((1s,4s)-4-((2-((2-(1-(Cyclopropylsulfonyl)-1H-pyrazol-4-yl)pyrimidin-4-yl)amino)-5-(4,5,6,7-tetrahydropyrazolo[1,5-a]pyridin-2-yl)pyridin-4-yl)amino)cyclohexyl)methanol] |
| 0.5 | 0.2 | 617 | 1.1 | 0.2 | 0.1 | 1.9 | 0.2 | 0.3 | 0.2 | O=S(=O)(C1CC1)n1cc(-c2nccc(Nc3cc(N[C@H]4CC[C@@H](NCCF)CC4)c(-c4cc5n(n4)CCCC5)cn3)n2)cn1 [Example 62, N^2-(2-(1-(Cyclopropylsulfonyl)-1H-pyrazol-4-yl)pyrimidin-4-yl)-N^4-((1s,4s)-4-((2-fluoroethyl)amino)cyclohexyl)-5-(4,5,6,7-tetrahydropyrazolo[1,5-a]pyridin-2-yl)pyridine-2,4-diamine] |
